Measured values as given in paper PMC7115587 (European Journal of Medicinal Chemistry, 2014).

Key:
[1] = system: CQ resistant W2 strain of P. falciparum; assay: In vitro antimalarial activity; assay type: cell-based, Plasmodium falciparum
[2] = system: HCT116 (colon cancer cell line) cells; assay: In vitro cytotoxicity

Row | SMILES | antimalarial activity (in words) [1] | cytotoxicity (in words) [2]
1 | O=C1C(=O)N(CC(CO)NCCNc2ccnc3cc(Cl)ccc23)c2ccccc21 (stereo not drawn) [Compound 11a, 1-{2-[2-(7-Chloro-quinolin-4-ylamino)-ethylamino]-3-hydroxy-propyl}-1H-indole-2,3-dione] | better activity than chloroquine | –
2 | O=C1C(=O)N(CC(CO)NCCNc2ccnc3cc(Cl)ccc23)c2ccc(Cl)cc21 (stereo not drawn) [Compound 11b, 5-Chloro-1-{2-[2-(7-Chloro-quinolin-4-ylamino)-ethylamino]-3-hydroxy-propyl}-1H-indole-2,3-dione] | – | devoid of any cytotoxicity
3 | O=C1C(=O)N(CC(CO)NCCCNc2ccnc3cc(Cl)ccc23)c2ccc(Cl)cc21 (stereo not drawn) [Compound 11f, 5-Chloro-1-{2-[3-(7-Chloro-quinolin-4-ylamino)-propylamino]-3-hydroxy-propyl}-1H-indole-2,3-dione] | – | devoid of any cytotoxicity
